# Laboratory results from US12643892B2, “Pyridazinone compounds for the treatment of neuromuscular diseases” (Edgewise Therapeutics, Inc., priority 2020, dated 2026).
# Molecular target: Skeletal Myofibril ATPase (Rabbit Psoas myofibrils)
# Test: Skeletal Myofibril ATPase Assay
# Assay type: biochemical
# Conditions: PK/LDH-coupled NADH absorbance at 340 nm
# Outline: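 Rabbit psoas myofibril ATPase read through a PK-LDH coupled system, as NADH loss at 340 nm every 1.5-2 min for 1 h, in PIPES/CaCl2/EGTA pCa buffer at pH 7.0. Absorbance change normalized to 1% DMSO vehicle (100%) and no change (0%). IC50 from a four-parameter logistic fit with bottom constrained ≥0.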
row,IC50 [µM],SMILES
1,≤ 10,"CCNC(=O)Cn1nc(-c2nc(-c3cccc(Cl)c3F)no2)ccc1=O [Compound 3, 2-(3-(3-(3-chloro-2-fluoropheny)-1,2,4-oxadiazol-5-yl)-6-oxopyridazin-1(6H)-yl)-N-ethylacetamide]"
2,> 100,"Cc1ccc(-c2ccc(=O)n(CCOc3cccc(C#N)c3)n2)s1 [Compound 61, 3-(2-(3-(5-methylthiophen-2-yl)-6-oxopyridazin-1(6H)-yl)ethoxy)benzonitrile]"
3,10 to 100,"COc1ccccc1NC(=O)Cn1nc(-c2cccs2)ccc1=O [Compound 40, N-(2-methoxypheny1)-2-(6-oxo-3-(thiophen-2-yl)pyridazin-1(6H)-yl)acetamide]"
4,> 100,"O=C(Cn1nc(-c2cccs2)ccc1=O)Nc1ccccc1 [Compound 43, 2-(6-oxo-3-(thiophen-2-yl)pyridazin-1(6H)-yl)-N-phenylacetamide]"
5,≤ 10,"Cc1ccc(-c2ccc(=O)n(CC(=O)NC(C)C)n2)s1 [Compound 33, N-isopropyl-2-(3-(5-methylthiophen-2-yl)-6-oxopyridazin-1(6H)-yl)acetamide]"
6,≤ 10,"CCNC(=O)Cn1nc(-c2nc(-c3cccc(Cl)c3)co2)ccc1=O [Compound 30, 2-(3-(4-(3-chlorophenyl)oxazol-2-yl)-6-oxopyridazin-1(6H)-yl)-N-ethylacetamide]"
7,> 120,"O=c1ccc(-c2nc(-c3cnccn3)no2)cn1Cc1ccccc1F [Compound 116, 1-(2-fluorobenzyl)-5-(3-(pyrazin-2-yl)-1,2,4-oxadiazol-5-yl)pyridin-2(1H)-one]"
8,10 to 100,"O=c1ccc(-c2nc(-c3cccnc3)no2)nn1Cc1ccccc1 [Compound 67, 2-benzyl-6-(3-(pyridin-3-yl)-1,2,4-oxadiazol-5-yl)pyridazin-3(2H)-one]"
9,≤ 10,"COc1cccc(-c2noc(-c3ccc(=O)n(Cc4cccnc4)c3)n2)c1 [Compound 101, 5-(3-(3-methoxyphenyl)-1,2,4-oxadiazol-5-yl)-1-(pyridin-3-ylmethyl)pyridin-2(1H)-one]"
10,≤ 10,"O=C(Cn1nc(-c2nnc(-c3ccccn3)s2)ccc1=O)NC1CCC1 [Compound 22, N-cyclobutyl-2-(6-oxo-3-(5-(pyridin-2-yl)-1,3,4-thiadiazol-2-yl)pyridazin-1(6H)-yl)acetamide]"
11,≤ 10,"O=c1ccc(-c2nc(-c3cncc(Cl)c3)no2)cn1Cc1cccnc1 [Compound 99, 5-(3-(5-chloropyridin-3-yl)-1,2,4-oxadiazol-5-yl)-1-(pyridin-3-ylmethyl)pyridin-2(1H)-one]"
12,≤ 10,"CCNC(=O)Cn1nc(-c2ncc(-c3cccc(Cl)c3)o2)ccc1=O [Compound 27, 2-(3-(5-(3-chlorophenyl)oxazol-2-yl)-6-oxopyridazin-1(6H)-yl)-N-ethylacetamide]"
13,≤ 10,"Cc1cccc(-c2noc(-c3ccc(=O)n(Cc4ncc(C)s4)c3)n2)c1 [Compound 92, 1-((5-methylthiazol-2-yl)methyl)-5-(3-(m-tolyl)-1,2,4-oxadiazol-5-yl)pyridin-2(1H)-one]"
14,10 to 100,"COc1ccc(NC(=O)Cn2nc(-c3ccco3)ccc2=O)c(OC)c1 [Compound 52, N-(2,4-dimethoxyphenyl)-2-(3-(furan-2-yl)-6-oxopyridazin-1(6H)-yl)acetamide]"

# Test system: embryos from zebrafish model of DMD
# Test: not given
# Conditions: FIG. 2, Li and Amer, PLoSONE, 2015; cited from earlier work
row,SMILES,protection of muscles from pathological muscle derangement
1,"Cc1ccc(S(=O)(=O)NCc2ccccc2)cc1 [BTS, N-benzyl-p-tolyl-sulfonamide]",protect muscles from pathological muscle derangement
